Experimental data reported in US20120142766A1, “SUBSTITUTED 1,3-DIOXANES AND THEIR USES” (EVOLVA SA, priority 2007, published 2012).
Each block holds one molecule with its values, some of them ahead of it.

What was measured:
[1] = tested on: arterial thrombosis in a mouse model; assay: Arterial thrombosis mouse model (FeCl3 on femoral artery); assay type: in vivo
Experimental: The solutions are diluted 3.3-fold in saline and 100 μl/25 g is injected. Thus, the above-mentioned doses of 100 and 300 mg/kg of compound correspond to final doses of 30 and 100 mg/kg.
During the experiments, a soluble salt of the drug is provided (potassium salt of compound C), diluted in saline. Of this formulation, 100 μl/25 g is injected i.v. in the tail vein (dose of 100 mg/kg).
Solutions are injected (100 μl/25 g body weight) i.v. in the tail vein over 2 min to obtain doses of each compound of 30 mg/kg and 100 mg/kg. Aspirin is given the same way at a dose of 200 mg/kg. Clopidogrel is administered by oral gavage at a dose of 20 mg/kg at 6-7 hours prior to the experiment. The animals assigned to each group are matched for body weight. Mice are typically 8-10 weeks old males and are in a 100% Swiss genetic background.
The flow in each image is expressed as a percentage of that at the contralateral side, and data are averaged for all 120 images to determine total flow. The same analysis is performed for 10 min intervals (which gives essentially the same information as the area under the curve). […] Flow before treatment is recorded as 100%, and that in occluded arteries as 0%. At the end of the experiment, blood is collected on 0.01M citrate by heart puncture for determination of blood cell counts. Plasma is prepared by centrifugation and stored at −20° C. for determination of drug levels.
Statistical analysis for differences between two groups is performed by non-parametric Student t-test. Occlusion times >30 min were considered equal to 30 min for statistical analysis. Significance is set at p<0.05.

KKA^y mice = assay: KKAy mice on high fat diet, 14-day oral gavage BID; assay type: in vivo, mouse
Experimental: 52 male KKA^y mice are obtained commercially (e.g., from Clea Japan) at an age of 6 weeks and put on a high fat diet upon arrival. Individual mice were housed in IVC Type II cages during both the acclimatization and the experimental phase. Both food (high fat diet) and water are supplied ad libitum.
1 animal per cage. […] Lights on at 06:00 a.m. Temperature: 21-25° C. Relative humidity target range: 55-60%.
Mice were randomized into treatment groups according to their 4-h fasting blood glucose.
4 hours after the last administration, non-fasting conditions.
Gamma irradiated high fat diet is commercially available (e.g., Research Diets, Inc. New Brunswick, N.J. (Product # D12266BI)).
Blood is collected into heparin containing glass capillaries which are subsequently centrifuged in a “Haematokrit 24” centrifuge (Hettich) at 15′200×g for 10 minutes at room temperature to obtain the hematocrit value.
The following serum parameters are determined on a COBAS INTEGRA 800 auto analyzer (Roche Diagnostics, Switzerland) using the reagents and protocols provided by the supplier.
All measurements are made on Day 14 of administration, except for the food intake and body weight measurements that are made on Day 12.

[2] = tested on: New Zealand Rabbit platelet rich plasma; assay: TP receptor platelet aggregation, rabbit (U-46619-induced); assay type: cell-based
Experimental: Thrombosis Research 33:277-288.
TP Receptor Platelet Aggregation—Rabbit:
New Zealand Rabbit (2.75±0.25 kg) platelet rich plasma
Assay: Inhibition of 1.5 μM U-46619-induced platelet aggregation Incubation Time, Temp: 5 minutes at 37° C. Incubation Buffer Trisodium Citrate (0.13 M)-treated platelet rich plasma
Time of Assessment: 5 minutes
Quantification Method Optical Density Change

Thromboxane synthase = target: T1, Thromboxane synthase (Homo sapiens, UniProt P24557); assay: Human platelet thromboxane synthase assay; assay type: biochemical
T1 construct: Human Platelet Thromboxane Synthase Assay; from tissue; host or cells: human platelets
T1 sequence (P24557 1-533): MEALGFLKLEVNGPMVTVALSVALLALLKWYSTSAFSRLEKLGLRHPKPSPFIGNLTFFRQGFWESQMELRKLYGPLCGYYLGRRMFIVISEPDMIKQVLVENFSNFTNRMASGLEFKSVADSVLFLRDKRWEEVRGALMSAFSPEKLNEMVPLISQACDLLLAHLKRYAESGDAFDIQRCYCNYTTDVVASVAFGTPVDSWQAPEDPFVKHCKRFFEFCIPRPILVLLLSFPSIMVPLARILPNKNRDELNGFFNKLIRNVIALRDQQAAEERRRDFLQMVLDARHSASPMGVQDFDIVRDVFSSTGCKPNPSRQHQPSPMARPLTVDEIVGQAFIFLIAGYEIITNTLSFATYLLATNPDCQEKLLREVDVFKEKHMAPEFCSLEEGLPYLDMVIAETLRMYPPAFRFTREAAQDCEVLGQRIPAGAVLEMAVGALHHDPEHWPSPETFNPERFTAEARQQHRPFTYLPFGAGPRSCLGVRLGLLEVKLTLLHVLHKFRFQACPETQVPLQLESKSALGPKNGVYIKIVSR
Experimental: The compounds were tested for thromboxane synthase inhibition essentially as described by Borsch-Haubold A G, Pasquet S, Watson S P. (1998) Direct inhibition of cyclooxygenase-1 and -2 by the kinase inhibitors SB 203580 and PD 98059. […] 1. Imidazole derivatives. J Med. Chem. (10):1139-48 according to the following:
Pre-incubation time, temp: 15 minutes at 25° C. Incubation time, temp: 3 minutes at 25° C.
Incubation Buffer: 10 mM Tris-HCl, pH 7.4
Quantification Method: EIA quantification of TxB2

[3] = target: T2, Thromboxane receptor (TP) (Homo sapiens, UniProt P21731); assay: TP receptor radioligand binding ([3H] SQ-29548); conditions: Human recombinant HEK-293 cells
T2 construct: expressed in transfected cells; host or cells: HEK-293
T2 sequence (P21731 1-343): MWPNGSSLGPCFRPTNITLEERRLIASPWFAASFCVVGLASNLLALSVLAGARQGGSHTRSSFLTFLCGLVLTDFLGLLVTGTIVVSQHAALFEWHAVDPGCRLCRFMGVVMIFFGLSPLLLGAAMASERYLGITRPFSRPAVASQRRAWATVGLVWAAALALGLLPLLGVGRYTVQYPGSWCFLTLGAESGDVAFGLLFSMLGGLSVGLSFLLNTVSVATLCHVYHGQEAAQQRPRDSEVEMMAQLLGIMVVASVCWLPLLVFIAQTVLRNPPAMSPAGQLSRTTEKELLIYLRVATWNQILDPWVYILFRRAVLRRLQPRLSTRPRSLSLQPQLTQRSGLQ
Experimental: The compounds were tested on radioligand binding assays for thromboxane receptor binding essentially as described by Hedberg et al. (1988) J. Pharmacol. Exp. Ther. 245:786-792 and Saussy et al. (1986) J. Biol. Chem. 261: 3025-3029 according to the following:
TP Receptor Radioligand Binding Studies:
Human recombinant HEK-293 cells,
Incubation Time, Temp: 30 minutes at 25° C.
Incubation Buffer: 50 mM Tris-HCl, pH 7.4, 154 mM NaCl
Non-Specific Ligand: 1 μM SQ-29548
The data were transformed to semi-log and then analysed using non-linear regression to a four-parameter dose-response curve Y=Bottom+(Top−Bottom)/(1+10̂((LogEC50−X)*HillSlope)) using the log(agonist) vs. response—Variable slope function of GraphPad Prism software (http://graphpad.com/help/prism5/prism5help.html?usitignonlinear_regression_step_by_s.htm).

[4] = 5 mg/kg BID oral gavage, Day 12, mean ± S.E.M.
[5] = 5 mg/kg BID oral gavage, Day 14, mean ± S.E.M.
[6] = 14-day BID, enoic acid 53 mg/kg, rosiglitazone 5 mg/kg, Compounds 3 and 13 dose not stated

SMILES: COC(=O)[C@H](c1ccccc1Cl)N1CCc2sccc2C1 [Clopidogrel]
Total blood flow ([1]; 20 mg/kg oral gavage 6-7 hours prior): significantly improved total blood flow

Food Intake (KKA^y mice; [4]): 4.5 ± 0.6 g/day
ALP (KKA^y mice; [5]): 26.0 ± 1.7 dU/L
Heart weight (KKA^y mice; [5]): 226.2 ± 6.9 mg
Hematocrit (KKA^y mice; [5]): 40.3 ± 1.5%
Heart weight (in words) (KKA^y mice; [6]): increased
SMILES: CN(CCOc1ccc(CC2SC(=O)NC2=O)cc1)c1ccccn1 (centres unmarked) [Rosiglitazone]
Body Weight (KKA^y mice; [4]): 49.5 ± 1.0 g
ALT (KKA^y mice; [5]): 8.9 ± 0.9 dU/L
AST (KKA^y mice; [5]): 10.1 ± 0.9 dU/L
FFA (KKA^y mice; [5]): 1.3 ± 0.1 mM
Fructosamine (KKA^y mice; [5]): 0.35 ± 0.03 mM
HDL (KKA^y mice; [5]): 3.6 ± 0.2 mM
HbA1C (KKA^y mice; [5]): 7.8 ± 0.4 %
Insulin (KKA^y mice; [5]): 17.9 ± 4.2 µg/L
Serum Glucose (KKA^y mice; [5]): 18.8 ± 2.2 mM
TG (KKA^y mice; [5]): 1.0 ± 0.2 mM
Total Cholesterol (KKA^y mice; [5]): 4.0 ± 0.4 mM
Body weight (in words) (KKA^y mice; [6]): increased

Heart weight (in words) (KKA^y mice; [6]): no effect on heart weight
SMILES: O=C(O)CC/C=C\C[C@@H]1COC(c2ccc(Nc3ccccc3)cc2)O[C@@H]1c1ccccc1O (mixture of isomers) [Compound 3, (Z)-6-(4-(2-Hydroxyphenyl)-2-(4-(phenylamino)phenyl)-1,3-dioxan-5-yl)hex-4-enoic acid]
Body weight (in words) (KKA^y mice; [6]): do not alter body weight
FFA (in words) (KKA^y mice; [6]): decreases the FFA
HbA1c levels (in words) (KKA^y mice; [6]): decreased

SMILES: CC(=O)Oc1ccccc1C(=O)O [Aspirin]
Occlusion time ([1]; 200 mg/kg i.v.): no effect on the occlusion time
Total blood flow ([1]; 200 mg/kg i.v.): no significant effect on the total blood flow

IC50 (Thromboxane synthase): 840 nM
Thromboxane synthase Human platelet Inhibition (%) at 5 μM (Thromboxane synthase; 5 μM): 76%
inhibition at 5 µM (Thromboxane synthase; 5 μM): 75%
Inhibition of thromboxane synthase (in words) (Thromboxane synthase; Table 2): inhibitors of thromboxane synthase
inhibition at 10 µM ([3]; 10 μM): 102%
IC50 ([3]; 5 nM [3H] SQ-29548): 11 nM
Ki ([3]; 5 nM [3H] SQ-29548): 7.2 nM
SMILES: O=C(O)CC/C=C\C[C@@H]1COC(c2ccccc2-c2ccccc2)O[C@@H]1c1ccccc1O (some centres unmarked) [Compound 10]
inhibition at 30 µM ([2]; Oryctolagus cuniculus, Platelet, 30 μM, 1.5 μM U-46619-induced): 100%
Inhibition of platelet aggregation (in words) ([2]; Table 2): potent inhibitors of platelet aggregation
Occlusion time ([1]; dose not given): prolongs the occlusion time
Total blood flow ([1]; dose not given): improves total blood flow

IC50 (Thromboxane synthase): 10100 nM
inhibition at 10 µM (Thromboxane synthase; 10 μM): 53%
SMILES: COc1ccc(C(=O)NCc2cccnc2)cc1C(=O)NCc1cccnc1 [Picotamide]
inhibition at 100 µM ([2]; Oryctolagus cuniculus, Platelet, 100 μM, 1.5 μM U-46619-induced): 36%
